Assay results taken from PMC8650221 (Biochemistry, 2021).
Where two headings read alike, the source gives them in different places.

Experiments:
T100’A OMPDC [1] = molecular target: T1, T100’A OMPDC (Saccharomyces cerevisiae, UniProt P03962, T100A); format: biochemical; details: pH 7.0, 25 °C, I = 0.15 (NaCl); for (kcat/Km)E•Act/Kd: activated decarboxylation of FO, T100’A OMPDC; for Kd: activator of T100’A OMPDC-catalyzed decarboxylation of FO
D37G OMPDC [2] = molecular target: T2, D37G OMPDC (Saccharomyces cerevisiae, UniProt P03962, D37G); test: D37G variant OMPDC-catalyzed decarboxylation of FO, dianion-activated; format: biochemical
T2 sequence (P03962 whole entry D37G): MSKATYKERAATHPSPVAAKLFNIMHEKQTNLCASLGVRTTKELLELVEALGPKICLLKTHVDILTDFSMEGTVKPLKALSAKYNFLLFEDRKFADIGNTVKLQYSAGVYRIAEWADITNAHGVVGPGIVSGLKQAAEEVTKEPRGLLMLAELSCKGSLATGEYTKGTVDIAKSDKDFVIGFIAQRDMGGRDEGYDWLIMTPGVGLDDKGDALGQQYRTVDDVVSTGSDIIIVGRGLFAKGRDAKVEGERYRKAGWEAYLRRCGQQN

wild type OMPDC [3] = details: cited from earlier work; for stabilization of the transition state for OMPDC-catalyzed decarboxylation of FO by activator (ΔG^‡act): 1.0 M dianion activator; for (kcat/Km)E•Act/Kd: activated decarboxylation of FO, pH 7.0, 25 °C, I = 0.15 (NaCl)
adenylate kinase = details: cited from earlier work
D37G OMPDC [4] = molecular target: T2, D37G OMPDC; test: D37G variant OMPDC-catalyzed decarboxylation of OMP; format: biochemical
T100’A OMPDC [5] = molecular target: T1, T100’A OMPDC; test: T100’A variant OMPDC-catalyzed decarboxylation of OMP; format: biochemical
wild type OMPDC [6] = details: cited from earlier work
D37G OMPDC [7] = molecular target: T2, D37G OMPDC; format: biochemical; details: phosphite dianion activation of D37G-catalyzed decarboxylation of EO, pH 7.0, 25 °C, I = 0.14 (NaCl)
wild type OMPDC [8] = details: cited from earlier work; remark: listed apart in the source

T1 sequence (P03962 whole entry T100A): as the sequence (P03962 whole entry D37G) above, with G37D, T100A counted along it

SMILES | (kcat/Km)E•Act/Kd (T100’A OMPDC [1]) | stabilization of the transition state for OMPDC-catalyzed decarboxylation of FO by activator (ΔG^‡act) (wild type OMPDC [3]) | (kcat/Km)E•Act/Kd (wild type OMPDC [3]) | Kd (T100’A OMPDC [1]) | further results
O=P(O)(O)OC[C@@H](O)[C@@H](O)CO [DE4P, D-erythritol 4-phosphate] | (5.4 ± 0.1) × 10^−3 M^−2 s^−1 | 9.0 kcal/mol | 6.0 × 10^−1 M^−2 s^−1 |  | Kd (D37G OMPDC [2]): 3 mM
O=P(O)(O)OCC(O)CO (racemic) [DLG3P, D,L-glycerol 3-phosphate] | (1.7 ± 0.2) × 10^−3 M^−2 s^−1 |  | 1.3 × 10^−2 M^−2 s^−1 | 94 ± 8 mM | 
O=P(O)(O)OC[C@H](O)CO [LG3P, L-glycerol 3-phosphate] | (5.3 ± 0.2) × 10^−4 M^−2 s^−1 |  | 1.0 × 10^−3 M^−2 s^−1 | Kd >> [LG3P]^e | 
O=P(O)(O)OCC(O)CO [DG3P, D-glycerol 3-phosphate] |  | 7.2 kcal/mol | 2.5 × 10^−2 M^−2 s^−1 |  | 
Nc1c2ncnc-2ncn1[C@@H]1OC[C@@H](O)[C@H]1O [(1-β-D-erythrofuranosyl)adenine] |  |  |  |  | transition state stabilization by interactions with the substrate piece (adenylate kinase; phosphoryl transfer from ATP to phosphite dianion): ≥ 8.7 kcal/mol
Nc1ncnc2c1ncn2[C@@H]1O[C@H](COP(=O)(O)O)[C@@H](O)[C@H]1O [AMP] |  |  |  |  | transition state stabilization by interactions with the adenosyl group (adenylate kinase; enzyme-catalyzed phosphoryl transfer from ATP (to AMP)): ≥ 14.7 kcal/mol
O=C(O)c1cc(=O)[nH]c(=O)n1[C@@H]1O[C@H](COP(=O)(O)O)[C@@H](O)[C@H]1O [OMP, orotidine 5’-monophosphate] |  |  |  |  | intrinsic dianion binding energy (D37G OMPDC [4]; D37G OMPDC, calculated from ratio of kcat/Km for OMP and EO (Table 1)): 11.0 kcal/mol; decrease in transition state stabilization by protein interactions with the substrate dianion (D37G OMPDC [4]; effect of D37G substitution, decarboxylation of OMP): 0.7 kcal/mol; intrinsic dianion binding energy (T100’A OMPDC [5]; T100’A OMPDC, calculated from ratio of kcat/Km for OMP and EO (Table 1)): 10.8 kcal/mol; decrease in transition state stabilization by protein interactions with the substrate dianion (T100’A OMPDC [5]; effect of T100’A substitution, decarboxylation of OMP): 0.9 kcal/mol; stabilization of the Michaelis complex (wild type OMPDC [6]; Michaelis complex of OMPDC to OMP): 8 kcal/mol; transition state stabilization (wild type OMPDC [6]; OMPDC-catalyzed decarboxylation of OMP): 31 kcal/mol; intrinsic dianion binding energy (wild type OMPDC [6]; wild type OMPDC, from ratio of kcat/Km for OMP and EO): 11.7 kcal/mol
O=[PH](O)O [HPO3^2−, phosphite dianion] | (1.87 ± 0.03) × 10^−4 M^−2 s^−1 | 5.2 kcal/mol | 8.4 × 10^−4 M^−2 s^−1 | Kd >> [HPO3^2−]^e | Kd (D37G OMPDC [7]): 5.1 mM; Kd (D37G OMPDC [2]; activator of D37G OMPDC-catalyzed decarboxylation of FO, pH 7.0, 25 °C, I = 0.15 (NaCl)): 4.7 mM; Kd (D37G OMPDC [2]; phosphite dianion activation of D37G-catalyzed decarboxylation of FO): 4.7 mM; ΔG^‡act, stabilization of the decarboxylation transition state by phosphite dianion (wild type OMPDC [8]; decarboxylation of EO, wild type OMPDC): 7.7 kcal/mol; Kd (wild type OMPDC [8]; productive (observed) binding of phosphite dianion activator to wild type OMPDC or variant enzymes): ~100 mM
